This note sets out measurements from US20210300936A1, “PYRAZOLOTRIAZOLOPYRIMIDINE DERIVATIVES AS A2A RECEPTOR ANTAGONIST” (BEIGENE, LTD., priority 2018, published 2021).

The assay deals with human A2A receptor (A2AR) (Homo sapiens, UniProt P29274). The experiment in a line: Luciferase reporter assay (HEK293-A2AR-luc2p/CRE/Hygro cells, 3 nM CGS21680). The note with it: 3 nM CGS21680, 5 h incubation. The format is cell-based. The protocol: HEK293 cells were maintained in Dulbecco's modified Eagle's medium (DMEM, Gibco) supplemented with 10% fetal bovine serum (FBS, Thermo Scientific), 100 units/mL penicillin (Gibco), and 0.1 mg/mL streptomycin (Gibco) in a humidified 37° C. environment with 5% C02. Plasmid encoding wild-type human A2A receptor (A2AR) (in pcDNA3.1) was synthesized by Genscript (Nanjing, China). Transfection of the plasmids was performed in 6-well plates with 4×10^5 cells using Lipofectamin 2000 (ThermoFisher Scientific) according to the instruction of the manufacturer. Cell clones that stably express A2AR were established and maintained in the same complete medium as the HEK293 cells in addition of G-418 (Gibico). Expression level of A2AR in each single cell clone was determined using immunoblotting and FACS method. HEK293-A2AR stable cells were then transfected with pGL4.29[luc2P/CRE/Hygro] (Promega) luciferase reporter plasmid for establishing the HEK293-A2AR-luc2p/CRE/Hygro stable cell line.
human A2A receptor (A2AR), sequence (P29274 whole entry): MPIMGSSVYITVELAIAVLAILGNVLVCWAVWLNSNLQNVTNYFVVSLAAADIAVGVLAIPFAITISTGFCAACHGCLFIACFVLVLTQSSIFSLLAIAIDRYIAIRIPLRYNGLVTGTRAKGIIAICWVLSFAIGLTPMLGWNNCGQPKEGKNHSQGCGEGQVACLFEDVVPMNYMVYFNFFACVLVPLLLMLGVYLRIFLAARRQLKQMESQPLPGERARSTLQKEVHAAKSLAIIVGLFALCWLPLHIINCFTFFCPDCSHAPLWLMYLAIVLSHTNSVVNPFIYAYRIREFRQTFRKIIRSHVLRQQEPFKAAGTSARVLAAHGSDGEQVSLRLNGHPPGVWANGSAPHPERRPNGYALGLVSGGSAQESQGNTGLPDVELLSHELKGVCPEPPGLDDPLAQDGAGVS
HEK293-A2AR-luc2p/CRE/Hygro cells were seeded at a density of 5,000 cells/well in DMEM with 1% FBS and 1 U/mL adenosine deaminase (ADA) (Sigma). After 18 h, the cells were treated with 3 nM CGS21680 plus a series dilution of A2AR antagonist, the compounds disclosed herein at the concentration of 0.1˜10000 nM, prepared in DMEM with 1% FBS. After 5 h incubation, the luciferase activity in cells were measured using the Bright-Glo Luciferase Assay System (Promega) according to manufacturer's instructions. The luminescence signal was measured using a PHERAstar FS plate reader (BMG Labtech). […] Maximal luminescence intensity was determined in the presence of 3 nM CGS21680 and was set as 100%. The IC50 value was calculated from a dose dependent inhibition curve across the range of compound concentrations.
Background: In a reporter assay the amount or activity of a reporter protein is the signal.

What is called IC50 is the concentration needed to halve the response being measured. Low readings indicate greater potency, high ones weaker potency. In the case of `Nc1nc2c(cnn2C(C(=O)N2CCc3cccc(F)c3C2)c2ccccc2)c2nc(-c3ccco3)nn12` (stereo not drawn) [Compound B10, 2-(5-amino-2-(furan-2-yl)-7H-pyrazolo[4,3-e][1,2,4]triazolo[1,5-c]pyrimidin-7-yl)-1-(8-fluoro-3,4-dihydroisoquinolin-2(1H)-yl)-2-phenylethan-1-one], 0.0008 µM corresponded to half-maximal inhibition (IC50).
As for `C[C@](C(=O)N1CCN(c2ccc(OCCCN3CCOCC3)cc2)CC1)(c1ccccc1)n1ncc2c1nc(N)n1nc(-c3ccco3)nc21` [Compound A76b, (R)-2-(5-amino-2-(furan-2-yl)-7H-pyrazolo[4,3-e][1,2,4]triazolo[1,5-c]pyrimidin-7-yl)-1-(4-(4-(3-morpholinopropoxy)phenyl)piperazin-1-yl)-2-phenylpropan-1-one], the midpoint of inhibition, the IC50, lay at 0.0039 µM.
Then `COCCOc1ccc(N2CCN(C(=O)C(C3CCNCC3)n3ncc4c3nc(N)n3nc(-c5ccco5)nc43)CC2)cc1` (stereo not drawn) [Compound A58, 2-(5-amino-2-(furan-2-yl)-7H-pyrazolo[4,3-e][1,2,4]triazolo[1,5-c]pyrimidin-7-yl)-1-(4-(4-(2-methoxyethoxy)phenyl)piperazin-1-yl)-2-(piperidin-4-yl)ethan-1-one], with greater than 10 µM.
For `COCCOc1ccc(N2CCN(C(=O)C(C)n3ncc4c3nc(N)n3nc(-c5ccco5)nc43)CC2)cc1` (single isomer, unassigned) [Compound A1b, 2-(5-amino-2-(furan-2-yl)-7H-pyrazolo[4,3-e][1,2,4]triazolo[1,5-c]pyrimidin-7-yl)-1-(4-(4-(2-methoxyethoxy)phenyl)piperazin-1-yl)propan-1-one], the half-maximal inhibitory concentration (IC50) was determined as 0.04 µM.
The figure for `COCCOc1ccc(N2CCN(C(=O)C(c3ccccc3)n3ncc4c3nc(N)n3nc(-c5ccco5)nc43)CC2)cc1F` (stereo not drawn) [Compound A55, 2-(5-amino-2-(furan-2-yl)-7H-pyrazolo[4,3-e][1,2,4]triazolo[1,5-c]pyrimidin-7-yl)-1-(4-(3-fluoro-4-(2-methoxyethoxy)phenyl)piperazin-1-yl)-2-phenylethan-1-one] is 0.0023 µM; for `COCCOc1ccc(N2CCN(C(=O)C(C)(c3ccccc3)n3ncc4c3nc(N)n3nc(-c5ccco5)nc43)CC2)c(OC)c1` (stereo not drawn) [Compound A106, 2-(5-amino-2-(furan-2-yl)-7H-pyrazolo[4,3-e][1,2,4]triazolo[1,5-c]pyrimidin-7-yl)-1-(4-(2-methoxy-4-(2-methoxyethoxy)phenyl)piperazin-1-yl)-2-phenylpropan-1-one] it is 0.0085 µM.
Then `COCCOCCOc1ccc(N2CCN(C(=O)C(CC(C)C)n3cc4c(nc(N)n5nc(-c6ccco6)nc45)n3)CC2)cc1` (stereo not drawn) [Compound C18, 2-(5-amino-2-(furan-2-yl)-8H-pyrazolo[4,3-e][1,2,4]triazolo[1,5-c]pyrimidin-8-yl)-1-(4-(4-(2-(2-methoxyethoxy)ethoxy)phenyl)piperazin-1-yl)-4-methylpentan-1-one], with 0.0902 µM.
The figure for `CC(C(=O)N1CCN(c2ccc(F)cc2F)CC1)(c1ccccc1)n1ncc2c1nc(N)n1nc(-c3ccco3)nc21` (stereo not drawn) [Compound A68, 2-(5-amino-2-(furan-2-yl)-7H-pyrazolo[4,3-e][1,2,4]triazolo[1,5-c]pyrimidin-7-yl)-1-(4-(2,4-difluorophenyl)piperazin-1-yl)-2-phenylpropan-1-one] is 0.0044 µM; for `CC(C(=O)N1CCN(c2ccc(OCCN(C)C)cc2)CC1)n1ncc2c1nc(N)n1nc(-c3ccco3)nc21` (stereo not drawn) [Compound A18, 2-(5-amino-2-(furan-2-yl)-7H-pyrazolo[4,3-e][1,2,4]triazolo[1,5-c]pyrimidin-7-yl)-1-(4-(4-(2-(dimethylamino)ethoxy)phenyl)piperazin-1-yl)propan-1-one] it is 0.0306 µM; for `COCCOc1ccc(N2CCN(C(=O)C(c3cccc(F)c3)n3ncc4c3nc(N)n3nc(-c5ccco5)nc43)CC2)cc1` (stereo not drawn) [Compound A42, 2-(5-amino-2-(furan-2-yl)-7H-pyrazolo[4,3-e][1,2,4]triazolo[1,5-c]pyrimidin-7-yl)-2-(3-fluorophenyl)-1-(4-(4-(2-methoxyethoxy)phenyl)piperazin-1-yl)ethan-1-one] it is 0.0051 µM.
On to `COCCOc1ccc(N2CCN(C(=O)C(c3ccccc3)n3ncc4c3nc(N)n3nc(-c5ccco5)nc43)CC2)c(F)c1` (stereo not drawn) [Compound A44, 2-(5-amino-2-(furan-2-yl)-7H-pyrazolo[4,3-e][1,2,4]triazolo[1,5-c]pyrimidin-7-yl)-1-(4-(2-fluoro-4-(2-methoxyethoxy)phenyl)piperazin-1-yl)-2-phenylethan-1-one], for which 0.002 µM corresponded to half-maximal inhibition (IC50).
`COCCOc1ccc(N2CCN(C(=O)C(c3ccc(F)c(F)c3)n3ncc4c3nc(N)n3nc(-c5ccco5)nc43)CC2)cc1` (stereo not drawn) [Compound A40, 2-(5-amino-2-(furan-2-yl)-7H-pyrazolo[4,3-e][1,2,4]triazolo[1,5-c]pyrimidin-7-yl)-2-(3,4-difluorophenyl)-1-(4-(4-(2-methoxyethoxy)phenyl)piperazin-1-yl)ethan-1-one] gave an IC50 of 0.0237 µM.
Then `COCCOCCOc1ccc(N2CCN(C(=O)C(C(C)C)n3cc4c(nc(N)n5nc(-c6ccco6)nc45)n3)CC2)cc1` (stereo not drawn) [Compound C12, 2-(5-amino-2-(furan-2-yl)-8H-pyrazolo[4,3-e][1,2,4]triazolo[1,5-c]pyrimidin-8-yl)-1-(4-(4-(2-(2-methoxyethoxy)ethoxy)phenyl)piperazin-1-yl)-3-methylbutan-1-one], with 0.337 µM; and `C[C@](C(=O)N1CCN(c2ccc(F)cc2)CC1)(c1ccccc1)n1ncc2c1nc(N)n1nc(-c3ccco3)nc21` [Compound A70b, (R)-2-(5-amino-2-(furan-2-yl)-7H-pyrazolo[4,3-e][1,2,4]triazolo[1,5-c]pyrimidin-7-yl)-1-(4-(4-fluorophenyl)piperazin-1-yl)-2-phenylpropan-1-one], with 0.0034 µM.
The figure for `CC(C)CC(C(=O)N1CCN(c2ccc(F)cc2F)CC1)n1cc2c(nc(N)n3nc(-c4ccco4)nc23)n1` (stereo not drawn) [Compound C23, 2-(5-amino-2-(furan-2-yl)-8H-pyrazolo[4,3-e][1,2,4]triazolo[1,5-c]pyrimidin-8-yl)-1-(4-(2,4-difluorophenyl)piperazin-1-yl)-4-methylpentan-1-one] is 0.0696 µM; for `CO[C@H]1CCN(C(=O)C(C)(c2ccccc2)n2ncc3c2nc(N)n2nc(-c4ccco4)nc32)C1` (stereo partly drawn) [Compound B29, 2-(5-amino-2-(furan-2-yl)-7H-pyrazolo[4,3-e][1,2,4]triazolo[1,5-c]pyrimidin-7-yl)-1-((S)-3-methoxypyrrolidin-1-yl)-2-phenylpropan-1-one] it is 0.0765 µM; for `COCCOc1ccc(N2CCN(C(=O)C(Cc3ccccc3)n3cc4c(nc(N)n5nc(-c6ccco6)nc45)n3)CC2)cc1` (stereo not drawn) [Compound C20, 2-(5-amino-2-(furan-2-yl)-8H-pyrazolo[4,3-e][1,2,4]triazolo[1,5-c]pyrimidin-8-yl)-1-(4-(4-(2-methoxyethoxy)phenyl)piperazin-1-yl)-3-phenylpropan-1-one] it is 2.07 µM.
The figure for `COCCOc1ccc(N2CCN(C(=O)C(c3ccc4ccccc4c3)n3ncc4c3nc(N)n3nc(-c5ccco5)nc43)CC2)cc1` (stereo not drawn) [Compound A33, 2-(5-amino-2-(furan-2-yl)-7H-pyrazolo[4,3-e][1,2,4]triazolo[1,5-c]pyrimidin-7-yl)-1-(4-(4-(2-methoxyethoxy)phenyl)piperazin-1-yl)-2-(naphthalen-2-yl)ethan-1-one] is 0.0133 µM.
